Data: US20250066351A1, “PYRAZOLO[1,5-A]PYRIDIN-2,3-YL AMIDES AS KV7 CHANNEL ACTIVATORS” (Biohaven Therapeutics Ltd., priority 2022, published 2025)

Biological target: T1, hKv7.2/7.3 (Homo sapiens, UniProt O43525+O43526)
T1 construct: host or cells: HEK cells, tetracycline-inducible expression
Test: Kv7.2/7.3 Activation Assay, QPatch planar patch-clamp single concentration screen
Format: cell-based
Conditions: increase in current over baseline, Kv7.2/Kv7.3 co-expressing HEK cells, compound concentration 3 μM, steady-state current at end of 2 s pulse to −30 mV
Description: The ability of compounds to potentiate K-currents in Kv7.2/7.3 containing HEK cells was assessed using planar patch-clamp on the QPatch automated screening platform.
Cell Line: The hKv7.2/7.3 cell line was obtained from Chantest (Cleveland, OH 44128) cat. #CT6147. These HEK cells will express the Kv7.2/7.3 ion channels when induced.
Cell Culture: Cells were maintained in a media containing DMEM/F12; 50/50 (GIBCO cat. #11330), 10% Fetal Bovine Serum (FBS) (GIBCO cat. #26140), 100 units/mL Penicillin-Streptomycin (GIBCO cat. #15140), 0.005 mg/mL Blasticidin (INVIVOGEN cat. #ant-bl-1), 0.5 mg/mL Geneticin (GIBCO cat. #10131), 0.1 mg/mL Zeocin (GIBCO cat. #R25001). Cells used in the electrophysiology assay were maintained in a media without Blasticidin, Geneticin and Zeocin for 2 days and channel expression was induced by adding tetracycline (BIOLINE cat. #BIO-87030) at a final concentration of […]. Cells were grown in T-175 flask to ˜75% confluency. Currents were recorded 24 hours after channel induction.
Compound Plates: Test compounds were prepared by performing serial dilutions on a Biomek NX^P (BECKMAN COULTER). Final dilutions were made in external recording solution with a final DMSO concentration of 0.1% DMSO. For single concentration screens each plate had 10 μM retigabine as a positive control and 0.1% DMSO as a negative control.
Electrophysiology: On the day of the experiment cells were washed with Hank's Balanced Salt Solution (HBBS) (GIBCO cat. #14175) and harvested with Tryple (GIBCO cat. #12604). Cells were then centrifuged at 2000 rpm for 5 minutes and resuspended in CHO—S-SFM (GIBCO cat. #12052) at […]. Cells were stirred for 30 minutes before experiments were started. External recording solution contained (in mM): NaCl (145), KCl (4), CaCl2 (2), MgCl2 (1), HEPES (10) and Glucose (10); pH was adjusted to 7.4 with NaOH and the osmolarity was adjusted to 300-305 mOsM with sucrose if necessary. Internal solution contained (in mM): KCl (125), KF (10), EGTA (5), Na2ATP (5), MgCl2 (3.2), HEPES (5); pH was adjusted to 7.2 with KOH and the osmolarity was adjusted to 298-302 mOsM with sucrose.
Potassium channel activity was measured on the QPatch HTX (Sophion Bioscience) using QPlates with 48-wells/plate. Each cell was taken as an independent experiment and only one compound was tested per well. Potassium channel activity was elicited by holding at −80 mV and stepping to −30 mV for 2 s followed by a 100 ms pulse to −120 mV.
Single concentration screen: Baseline conditions were obtained by recording 5 sweeps in the external solution only, this was repeated for three applications of the external solution. The effect of test compounds on elicited current was then assessed by recording 5 sweeps in the presence of a 3 μM compound solution. The steady-state current at the end of the 2 s pulse to −30 mV was measured to determine the fold increase from baseline.

Structure (SMILES)	QPatch Kv7.2/7.3 Activity
CC(C)(C)CC(=O)Nc1nn2ccccc2c1C1CCC1 [Example 1, N-(3-cyclobutylpyrazolo[1,5-a]pyridin-2-yl)-3,3-dimethylbutanamide]	+ (2.0-3.99 (+))
O=C(CC(C(F)(F)F)C(F)(F)F)Nc1nn2ccccc2c1C1CCC1 [Example 4, N-(3-cyclobutylpyrazolo[1,5-a]pyridin-2-yl)-4,4,4-trifluoro-3-(trifluoromethyl) butanamide]	+/− (1.2-1.99-fold (+/−))
O=C(CC(C(F)(F)F)C(F)(F)F)Nc1nn2ccc(C(F)(F)F)cc2c1C1CCC1 [Example 5, N-(3-cyclobutyl-5-(trifluoromethyl)pyrazolo [1,5-a]pyridin-2-yl)-4,4,4-trifluoro-3-(trifluoromethyl) butanamide]	+/− (1.2-1.99-fold (+/−))
CC(C)[C@H](C)C(=O)Nc1nn2ccccc2c1C1CCC1 [Example 6, (S)-N-(3-cyclobutylpyrazolo[1,5-a]pyridin-2-yl)-2,3-dimethylbutanamide]	+ (2.0-3.99 (+))
CC(C)[C@H](C)C(=O)Nc1nn2ccc(C#N)cc2c1C1CCC1 [Example 8, (S)-N-(5-cyano-3-cyclobutylpyrazolo[1,5-a]pyridin-2-yl)-2,3-dimethylbutanamide]	+ (2.0-3.99 (+))
CC(C)(O)CC(=O)Nc1nn2ccc(C#N)cc2c1C1CCC1 [Example 11, N-(5-cyano-3-cyclobutylpyrazolo[1,5-a]pyridin-2-yl)-3-hydroxy-3-methylbutanamide]	+/− (1.2-1.99-fold (+/−))
CC(C)(O)CC(=O)Nc1nn2ccc(Br)cc2c1C1CCC1 [Example 12, N-(5-bromo-3-cyclobutylpyrazolo[1,5-a]pyridin-2-yl)-3-hydroxy-3-methylbutanamide]	+ (2.0-3.99 (+))
COc1ccn2nc(NC(=O)CC(C)(C)O)c(C3CCC3)c2c1 [Example 16, N-(3-cyclobutyl-5-methoxypyrazolo[1,5-a]pyridin-2-yl)-3-hydroxy-3-methylbutanamide]	+/− (1.2-1.99-fold (+/−))
CC(C)(O)CC(=O)Nc1nn2ccc(C(F)(F)F)cc2c1-c1ccc(Cl)cc1 [Example 17, N-(3-(4-chlorophenyl)-5-(trifluoromethyl)pyrazolo [1,5-a]pyridin-2-yl)-3-hydroxy-3-methylbutanamide]	+ (2.0-3.99 (+))
CC(C)(O)CC(=O)Nc1nn2c(Br)cccc2c1C1CCC1 [Example 19, N-(7-bromo-3-cyclobutylpyrazolo[1,5-a]pyridin-2-yl)-3-hydroxy-3-methylbutanamide]	+ (2.0-3.99 (+))
O=C(CC1(O)CCCC1)Nc1nn2ccc(Cl)cc2c1C1CCC1 [Example 20, N-(5-chloro-3-cyclobutylpyrazolo[1,5-a]pyridin-2-yl)-2-(1-hydroxycyclopentyl) acetamide]	+ (2.0-3.99 (+))
O=C(CC1(O)CCC1)Nc1nn2ccc(C(F)(F)F)cc2c1-c1ccc(F)cc1 [Example 22, N-(3-(4-fluorophenyl)-5-(trifluoromethyl)pyrazolo [1,5-a]pyridin-2-yl)-2-(1-hydroxycyclobutyl) acetamide]	+ (2.0-3.99 (+))
COc1ccn2nc(NC(=O)CC(C)(O)C3CCCC3)c(C3CCC3)c2c1 (centres unmarked) [Example 26, N-(3-cyclobutyl-5-methoxypyrazolo[1,5-a]pyridin-2-yl)-3-cyclopentyl-3-hydroxybutanamide]	+ (2.0-3.99 (+))

Now from value to molecule:

QPatch Kv7.2/7.3 Activity	Structure (SMILES)
+ (2.0-3.99 (+))	CC(C)(C)CC(=O)Nc1nn2ccc(C(F)(F)F)cc2c1C1CCC1 [Example 2, N-(3-cyclobutyl-5-(trifluoromethyl)pyrazolo [1,5-a]pyridin-2-yl)-3,3-dimethylbutanamide]
+ (2.0-3.99 (+))	CC(C)[C@H](C)C(=O)Nc1nn2ccc(C(F)(F)F)cc2c1C1CCC1 [Example 7, (S)-N-(3-cyclobutyl-5-(trifluoromethyl)pyrazolo [1,5-a]pyridin-2-yl)-2,3-dimethylbutanamide]
− (<1.2-fold (−))	CC(C)(O)CC(=O)Nc1nn2ccccc2c1C1CCC1 [Example 9, N-(3-cyclobutylpyrazolo[1,5-a]pyridin-2-yl)-3-hydroxy-3-methylbutanamide]
+ (2.0-3.99 (+))	CC(C)(O)CC(=O)Nc1nn2ccc(C(F)(F)F)cc2c1C1CCC1 [Example 10, N-(3-cyclobutyl-5-(trifluoromethyl)pyrazolo [1,5-a]pyridin-2-yl)-3-hydroxy-3-methylbutanamide]
+ (2.0-3.99 (+))	CC(C)(O)CC(=O)Nc1nn2ccc(C(F)(F)F)cc2c1-c1ccccc1 [Example 13, 3-hydroxy-3-methyl-N-(3-phenyl-5-(trifluoromethyl)pyrazolo [1,5-a]pyridin-2-yl)butanamide]
+ (2.0-3.99 (+))	Cc1ccc(-c2c(NC(=O)CC(C)(C)O)nn3ccc(C(F)(F)F)cc23)cc1 [Example 18, 3-hydroxy-3-methyl-N-(3-(p-tolyl)-5-(trifluoromethyl)pyrazolo [1,5-a]pyridin-2-yl)butanamide]
+ (2.0-3.99 (+))	O=C(CC1(O)CCCC1)Nc1nn2ccc(C(F)(F)F)cc2c1C1CCC1 [Example 21, N-(3-cyclobutyl-5-(trifluoromethyl)pyrazolo [1,5-a]pyridin-2-yl)-2-(1-hydroxycyclopentyl) acetamide]
+ (2.0-3.99 (+))	CC(O)(CC(=O)Nc1nn2ccc(C(F)(F)F)cc2c1C1CCC1)C1CCC1 (centres unmarked) [Example 23, 3-cyclobutyl-N-(3-cyclobutyl-5-(trifluoromethyl)pyrazolo [1,5-a]pyridin-2-yl)-3-hydroxybutanamide]
+ (2.0-3.99 (+))	CC(O)(CC(=O)Nc1nn2ccc(C(F)(F)F)cc2c1C1CCC1)c1ccccc1 (centres unmarked) [Example 27, N-(3-cyclobutyl-5-(trifluoromethyl)pyrazolo [1,5-a]pyridin-2-yl)-3-hydroxy-3-phenylbutanamide]
+/− (1.2-1.99-fold (+/−))	CC(O)(CC(=O)Nc1nn2ccc(C#N)cc2c1C1CCC1)c1ccccc1 (centres unmarked) [Example 28, N-(5-cyano-3-cyclobutylpyrazolo[1,5-a]pyridin-2-yl)-3-hydroxy-3-phenylbutanamide]
++ (4.0-5.99 (++))	C[C@](O)(CC(=O)Nc1nn2ccc(C(F)(F)F)cc2c1C1CCC1)c1ccccc1 [Example 29, (S)-N-(3-cyclobutyl-5-(trifluoromethyl)pyrazolo [1,5-a]pyridin-2-yl)-3-hydroxy-3-phenylbutanamide]
+ (2.0-3.99 (+))	C[C@](O)(CC(=O)Nc1nn2ccc(C#N)cc2c1C1CCC1)c1ccccc1 [Example 30, (S)-N-(5-cyano-3-cyclobutylpyrazolo[1,5-a]pyridin-2-yl)-3-hydroxy-3-phenylbutanamide]
+ (2.0-3.99 (+))	C[C@](O)(CC(=O)Nc1nn2ccc(Cl)cc2c1C1CCC1)c1ccccc1 [Example 31, (S)-N-(5-chloro-3-cyclobutylpyrazolo[1,5-a]pyridin-2-yl)-3-hydroxy-3-phenylbutanamide]
+ (2.0-3.99 (+))	C[C@](O)(CC(=O)Nc1nn2ccc(C(F)(F)F)cc2c1-c1ccc(F)cc1)c1ccccc1 [Example 32, (S)-N-(3-(4-fluorophenyl)-5-(trifluoromethyl)pyrazolo [1,5-a]pyridin-2-yl)-3-hydroxy-3-phenylbutanamide]
+ (2.0-3.99 (+))	C[C@](O)(CC(=O)Nc1nn2c(Br)cccc2c1C1CCC1)c1ccccc1 [Example 33, (S)-N-(7-bromo-3-cyclobutylpyrazolo[1,5-a]pyridin-2-yl)-3-hydroxy-3-phenylbutanamide]
− (<1.2-fold (−))	C[C@@](O)(CC(=O)Nc1nn2ccc(C(F)(F)F)cc2c1C1CCC1)c1ccccc1 [Example 34, (R)-N-(3-cyclobutyl-5-(trifluoromethyl)pyrazolo [1,5-a]pyridin-2-yl)-3-hydroxy-3-phenylbutanamide]
